Literature values as cited in PMC9788431, “Combination of Docking-Based and Pharmacophore-Based Virtual Screening Identifies Novel Agonists That Target the Urotensin Receptor” (Molecules, 2022).
Several values for one entry are separate records, joined by “and”; a condition that tells them apart may be missing. Identical values can stand only once. Positions of bridges follow the written chain, without caps; N, C: chain ends. Non-standard residues stand in square brackets, D forms with d. Residues, ends and D or L forms follow the SMILES beside them. Phe(4-I) = N[C@@H](Cc1ccc(I)cc1)C(=O)O; dTle = CC(C)(C)[C@@H](N)C(=O)O

Legend:
UT receptor [1] = target: T1, UT receptor (Homo sapiens, UniProt Q9UKP6); set-up: method as in ChEMBL database and others; conditions: antagonist; Table S1 benchmarking ligands; ref ChEMBL database and others; cited from earlier work
T1 construct: SNAP-tag; expressed in transfected cells; host or cells: 293A8 (HEK293A stably transfected with the UT receptor); inferred, the calcium-assay paragraph names no cells
T1 sequence (Q9UKP6 1-389): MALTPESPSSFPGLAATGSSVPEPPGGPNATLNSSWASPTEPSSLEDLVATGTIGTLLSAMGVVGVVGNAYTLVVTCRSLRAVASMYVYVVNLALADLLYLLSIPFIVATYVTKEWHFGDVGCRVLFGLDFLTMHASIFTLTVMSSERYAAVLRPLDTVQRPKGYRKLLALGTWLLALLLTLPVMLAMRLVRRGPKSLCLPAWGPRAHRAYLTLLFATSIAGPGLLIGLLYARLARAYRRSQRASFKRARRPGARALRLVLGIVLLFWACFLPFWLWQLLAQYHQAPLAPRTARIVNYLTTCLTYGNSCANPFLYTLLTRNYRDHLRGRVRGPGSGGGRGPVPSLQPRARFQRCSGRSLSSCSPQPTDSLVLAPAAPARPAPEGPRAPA

UT receptor [2] = target: T1, UT receptor; conditions: agonist; Table S1 benchmarking ligands; ref ChEMBL database and others; cited from earlier work

| Structure (SMILES) | IC50 (UT receptor [1]) [nM] | EC50 (UT receptor [2]) |
| --- | --- | --- |
| CN(CC(=O)N1CCCCC1CN1CCCC1)c1ccc(Cl)c(Cl)c1 (stereo not shown) [CHEMBL254154] | 631 | – |
| CN(C)CCCOc1ccc(CN2CC[C@H](NC(=O)c3ccc(Cl)c(Cl)c3)C2)cc1 [CHEMBL366221] | 170 | – |
| NCCCC[C@@H]1NC(=O)[C@H](Cc2c[nH]c3ccccc23)NC(=O)[C@H](CO)NC(=O)CNC(=O)[C@@H]2CCCN2C(=O)[C@H](Cc2ccccc2)NC1=O [CHEMBL593663] (cyclo(FPGSWK)) | – | 10.1 nM |
| NCCCC[C@@H]1NC(=O)[C@H](Cc2c[nH]c3ccccc23)NC(=O)[C@H](Cc2ccccc2)NC(=O)CNC(=O)[C@@H]2CCCN2C(=O)[C@H](Cc2ccc(O)cc2)NC1=O [CHEMBL607809] (cyclo(FWKYPG)) | – | 6.94 nM |
| NCCCC[C@@H]1NC(=O)[C@H](Cc2c[nH]c3ccccc23)NC(=O)[C@H](Cc2ccc(O)cc2)NC(=O)CNC(=O)[C@@H]2CCCN2C(=O)[C@H](Cc2ccc(O)cc2)NC1=O [CHEMBL607810] (cyclo(GYWKYP)) | – | 12.6 nM |
| NCCCC[C@@H]1NC(=O)[C@H](Cc2c[nH]c3ccccc23)NC(=O)[C@H](Cc2ccccc2)NC(=O)CNC(=O)[C@@H]2CCCN2C(=O)[C@H](Cc2ccccc2)NC1=O [CHEMBL607811] (cyclo(FPGFWK)) | – | 13.2 nM |
| NCCCC[C@@H]1NC(=O)[C@H](Cc2c[nH]c3ccccc23)NC(=O)[C@H](Cc2ccc(O)cc2)NC(=O)CNC(=O)[C@@H]2CCCN2C(=O)[C@H](Cc2ccccc2)NC1=O [CHEMBL608097] (cyclo(FPGYWK)) | – | 75.7 nM |
| NCCCC[C@@H]1NC(=O)[C@H](Cc2c[nH]c3ccccc23)NC(=O)[C@H](Cc2ccccc2)NC(=O)CNC(=O)[C@@H]2CCCN2C(=O)[C@H](Cc2c[nH]c3ccccc23)NC1=O [CHEMBL608098] (cyclo(FWKWPG)) | – | 20.6 nM |
| NCCCC[C@@H]1NC(=O)[C@H](Cc2c[nH]c3ccccc23)NC(=O)[C@H](CO)NC(=O)CNC(=O)[C@@H]2CCCN2C(=O)[C@H](Cc2c[nH]c3ccccc23)NC1=O [CHEMBL608099] (cyclo(GSWKWP)) | – | 16.7 nM |
| Cc1cc2c(cc1C)C(=O)OC(CCN(C)C)(c1ccc(Cl)c(Cl)c1)C2 (stereo not shown) [CHEMBL1171808] | – | 51.3 nM |
| Cc1cc2c(cc1C)CC(CCN(C)C)(c1ccc3ccccc3c1)OC2 (stereo not shown) [CHEMBL1172223] | – | 263 nM |
| CN(C)CCC1(c2ccc(Cl)c(Cl)c2)Cc2ccccc2C(=O)O1 (stereo not shown) [CHEMBL1172763] | – | 676 nM |
| C=CCN(CC=C)c1ccc2c(c1)CC(CCN(C)C)(c1ccc(Cl)cc1)OC2=O (stereo not shown) [CHEMBL1173081] | – | 724 nM |
| CN(C)CCC1(c2ccc(Cl)cc2)Cc2ccccc2CO1 (stereo not shown) [CHEMBL1173172] | – | 501 nM |
| Cc1cc2c(cc1C)C(=O)OC(CCN(C)C)(c1ccc3ccccc3c1)C2 (stereo not shown) [CHEMBL1173399] | – | 148 nM |
| Cc1cc2c(cc1C)CC(CCN(C)C)(c1ccc(Cl)cc1)OC2 (stereo not shown) [CHEMBL1173492] | – | 692 nM |
| CSCC[C@H](NC(=O)CNC(=O)[C@@H](NC(=O)CNC(=O)[C@@H](NC(=O)[C@H](NC(=O)[C@H](CC(N)=O)NC(=O)[C@H](CCCNC(=N)N)NC(=O)[C@H](Cc1ccccc1)NC(=O)[C@@H](N)CO)C(C)(C)C)C(C)C)[C@@H](C)O)C(=O)N[C@@H](CCCCN)C(=O)N[C@@H](CCCCN)C(=O)N[C@H](C(=O)N[C@@H](CO)C(=O)N[C@@H](Cc1ccccc1)C(=O)N[C@@H](CCC(N)=O)C(=O)N[C@@H](CCCNC(=N)N)C(=O)N[C@@H](C)C(=O)N[C@@H](CCCCN)C(=O)N[C@@H](CO)C(=O)O)[C@@H](C)O [CHEMBL1627325] (H-SFRN[dTle]VGTGMKKTSFQRAKS-OH) | – | 3.47 nM |
| CC(C)[C@H](NC(=O)[C@H](CS)NC(=O)[C@H](Cc1ccc(O)cc1)NC(=O)[C@H](CCCCN)NC(=O)[C@H](Cc1c[nH]c2ccccc12)NC(=O)[C@H](Cc1ccccc1)NC(=O)[C@H](C)NC(=O)[C@H](CC(=O)O)NC(=O)[C@H]1CCCN1C(=O)[C@@H](NC(=O)[C@@H](N)CCC(=O)O)[C@@H](C)O)C(=O)O [CHEMBL2372895] (H-ET[dP]DAFWKYCV-OH) | – | 233 nM |
| CC(C)[C@H](NC(=O)[C@H](CS)NC(=O)[C@H](Cc1ccc(O)cc1)NC(=O)[C@H](CCCCN)NC(=O)[C@H](Cc1c[nH]c2ccccc12)NC(=O)[C@H](Cc1ccccc1)NC(=O)[C@H](CS)NC(=O)[C@H](C)NC(=O)[C@H]1CCCN1C(=O)[C@@H](NC(=O)[C@@H](N)CCC(=O)O)[C@@H](C)O)C(=O)O [CHEMBL2372896] | – | 2.7 nM |
| CC(C)[C@H](NC(=O)[C@H](CS)NC(=O)[C@H](Cc1ccc(O)cc1)NC(=O)[C@H](CCCCN)NC(=O)[C@H](Cc1c[nH]c2ccccc12)NC(=O)[C@H](Cc1ccccc1)NC(=O)[C@H](CS)NC(=O)[C@H](CC(=O)O)NC(=O)[C@H](C)NC(=O)[C@@H](NC(=O)[C@@H](N)CCC(=O)O)[C@@H](C)O)C(=O)O [CHEMBL2372897] (H-ETADCFWKYCV-OH) | – | 1.9 nM |
| CC(C)[C@H](NC(=O)[C@H](CS)NC(=O)[C@H](Cc1ccc(O)cc1)NC(=O)[C@H](CCCCN)NC(=O)[C@H](Cc1c[nH]c2ccccc12)NC(=O)[C@H](Cc1ccccc1)NC(=O)[C@H](CS)NC(=O)[C@H](CC(=O)O)NC(=O)[C@H]1CCCN1C(=O)[C@@H](NC(=O)[C@H](C)N)[C@@H](C)O)C(=O)O [CHEMBL2372899] (H-AT[dP]DCFWKYCV-OH) | – | 1.8 nM |
| CC(C)[C@H](NC(=O)[C@H](CS)NC(=O)[C@H](Cc1ccc(O)cc1)NC(=O)[C@H](CCCCN)NC(=O)[C@H](Cc1c[nH]c2ccccc12)NC(=O)[C@H](C)NC(=O)[C@H](CS)NC(=O)[C@H](CC(=O)O)NC(=O)[C@H]1CCCN1C(=O)[C@@H](NC(=O)[C@@H](N)CCC(=O)O)[C@@H](C)O)C(=O)O [CHEMBL2372901] (H-ET[dP]DCAWKYCV-OH) | – | 5.7 nM |
| CC(C)[C@H](NC(=O)[C@H](CS)NC(=O)[C@H](Cc1ccc(O)cc1)NC(=O)[C@H](CCCCN)NC(=O)[C@H](Cc1c[nH]c2ccccc12)NC(=O)[C@H](Cc1ccccc1)NC(=O)[C@H](CS)NC(=O)[C@H](CC(=O)O)NC(=O)[C@H]1CCCN1C(=O)[C@H](C)NC(=O)[C@@H](N)CCC(=O)O)C(=O)O [CHEMBL2372902] (H-EA[dP]DCFWKYCV-OH) | – | 3.3 nM |
| CC(C)[C@H](NC(=O)[C@H](CS)NC(=O)[C@H](C)NC(=O)[C@H](CCCCN)NC(=O)[C@H](Cc1c[nH]c2ccccc12)NC(=O)[C@H](Cc1ccccc1)NC(=O)[C@H](CS)NC(=O)[C@H](CC(=O)O)NC(=O)[C@H]1CCCN1C(=O)[C@@H](NC(=O)[C@@H](N)CCC(=O)O)[C@@H](C)O)C(=O)O [CHEMBL2372903] (H-ET[dP]DCFWKACV-OH) | – | 193 nM |
| C[C@H](NC(=O)[C@H](CS)NC(=O)[C@H](Cc1ccc(O)cc1)NC(=O)[C@H](CCCCN)NC(=O)[C@H](Cc1c[nH]c2ccccc12)NC(=O)[C@H](Cc1ccccc1)NC(=O)[C@H](CS)NC(=O)[C@H](CC(=O)O)NC(=O)[C@H]1CCCN1C(=O)[C@@H](NC(=O)[C@@H](N)CCC(=O)O)[C@@H](C)O)C(=O)O [CHEMBL2372907] (H-ET[dP]DCFWKYCA-OH) | – | 3.2 nM |
| COc1ccc(/C=C/C2=NN(CCCCN)C(=O)N(Cc3ccc(-c4ccccc4)cc3)c3ccccc32)cc1 [CHEMBL4071437] | – | 7.08 nM and 8.51 nM |
| NCCCN1N=C(CCc2nc3ccccc3s2)c2ccccc2N(Cc2ccc3ccccc3c2)C1=O [CHEMBL4076150] | – | 6.17 nM and 10.7 nM |
| CC(C)[C@H](NC(=O)[C@@H]1CSSC[C@H](NC(=O)[C@@H](N)CC(=O)O)C(=O)N[C@@H](Cc2ccc(I)cc2)C(=O)N[C@@H](Cc2c[nH]c3ccccc23)C(=O)N[C@@H](CCCCN)C(=O)N[C@@H](Cc2ccc(O)cc2)C(=O)N1)C(=O)O [CHEMBL4205274] (H-DC[Phe(4-I)]WKYCV-OH; disulfide 2-7) | – | 191 nM |
